Measured values: ChEMBL document CHEMBL1134068, “Thiazole analogues of the NSAID indomethacin as selective COX-2 inhibitors” (Bioorg Med Chem Lett, 2001)

What was measured:
[1] = biological target: T1, Prostaglandin G/H synthase 1 (Homo sapiens, UniProt P23219); test: Percent inhibition at 10 uM concentration against human recombinant Prostaglandin G/H synthase 1 cloned and expressed in baculovirus (Sf9)
[2] = biological target: T2, Prostaglandin G/H synthase 2 (Homo sapiens) (UniProt P35354); test: Percent inhibition at 100 nM concentration against human recombinant Prostaglandin G/H synthase 2 cloned and expressed in baculovirus (Sf9)
T2 sequence (whole entry): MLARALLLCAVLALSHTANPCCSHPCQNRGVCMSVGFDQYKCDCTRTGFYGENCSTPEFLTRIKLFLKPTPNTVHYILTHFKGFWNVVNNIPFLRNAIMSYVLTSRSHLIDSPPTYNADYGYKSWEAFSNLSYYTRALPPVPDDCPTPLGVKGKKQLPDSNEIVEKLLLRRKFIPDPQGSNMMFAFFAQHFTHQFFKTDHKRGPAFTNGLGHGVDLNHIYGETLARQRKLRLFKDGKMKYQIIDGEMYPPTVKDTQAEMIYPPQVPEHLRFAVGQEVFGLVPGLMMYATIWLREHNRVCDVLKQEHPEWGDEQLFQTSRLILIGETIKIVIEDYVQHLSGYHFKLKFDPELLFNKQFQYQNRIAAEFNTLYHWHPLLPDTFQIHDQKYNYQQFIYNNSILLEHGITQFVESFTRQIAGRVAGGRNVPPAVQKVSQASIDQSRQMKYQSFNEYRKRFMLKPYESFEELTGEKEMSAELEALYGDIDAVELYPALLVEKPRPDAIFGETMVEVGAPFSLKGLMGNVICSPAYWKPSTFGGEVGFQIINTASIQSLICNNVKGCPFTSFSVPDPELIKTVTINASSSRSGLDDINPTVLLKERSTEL

[3] = biological target: T1, Prostaglandin G/H synthase 1; test: Percent inhibition at 10 uM concentration against human recombinant Prostaglandin G/H synthase 1 cloned and expressed in baculovirus
[4] = biological target: T1, Prostaglandin G/H synthase 1; test: Inhibitory concentration against human recombinant Prostaglandin G/H synthase 1 cloned and expressed in baculovirus (Sf9)
[5] = biological target: T3, Prostaglandin G/H synthase 2 (Homo sapiens, UniProt P35354); test: biochemical
T3 sequence (P35354 whole entry): T2 sequence (whole entry)
Description: Inhibitory concentration against human recombinant Prostaglandin G/H synthase 2 cloned and expressed in baculovirus (Sf9)

T1 sequence (P23219 whole entry): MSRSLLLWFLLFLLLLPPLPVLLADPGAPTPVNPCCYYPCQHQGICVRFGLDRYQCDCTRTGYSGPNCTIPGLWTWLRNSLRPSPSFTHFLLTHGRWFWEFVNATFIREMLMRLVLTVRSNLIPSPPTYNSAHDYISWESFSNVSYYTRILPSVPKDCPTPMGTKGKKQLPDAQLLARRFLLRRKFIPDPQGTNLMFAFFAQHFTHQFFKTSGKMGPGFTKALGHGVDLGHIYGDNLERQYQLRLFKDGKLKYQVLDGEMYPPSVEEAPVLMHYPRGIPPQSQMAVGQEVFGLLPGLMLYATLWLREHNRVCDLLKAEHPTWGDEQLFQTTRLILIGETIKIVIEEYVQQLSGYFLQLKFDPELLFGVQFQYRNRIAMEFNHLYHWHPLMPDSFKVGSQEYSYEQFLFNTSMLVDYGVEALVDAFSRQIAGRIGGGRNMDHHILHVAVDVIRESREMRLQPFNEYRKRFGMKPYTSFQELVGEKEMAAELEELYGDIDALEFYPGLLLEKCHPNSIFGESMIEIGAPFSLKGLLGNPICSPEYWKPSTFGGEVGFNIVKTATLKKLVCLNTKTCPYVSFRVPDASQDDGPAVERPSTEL

inhibition [1] [%]	inhibition [2] [%]	inhibition [3] [%]	IC50 [4] [µM]	IC50 [5] [µM]	SMILES
28	–	–	–	–	COc1ccc2c(c1)c(Cc1nc(-c3ccc(F)cc3)cs1)c(C)n2C(=O)c1ccc(Cl)cc1
–	85	35	–	–	COc1ccc2c(c1)c(Cc1nc(-c3cccc([N+](=O)[O-])c3)cs1)c(C)n2C(=O)c1ccc(Cl)cc1
–	10	40	–	–	COc1ccc2c(c1)c(Cc1nc(-c3ccc(C(=O)O)cc3)cs1)c(C)n2C(=O)c1ccc(Br)cc1
–	37	7	–	–	Cc1c(Cc2nc(-c3ccc(Cl)cc3)cs2)c2cc(F)ccc2n1C(=O)c1ccc(Br)cc1
–	6	13	–	–	COc1ccc2c(c1)c(Cc1nc(C34C[C@H]5C[C@@H](C3)C[C@@H](C4)C5)cs1)c(C)n2C(=O)c1ccc(Cl)cc1
13	21	–	–	–	COc1ccc2c(c1)c(Cc1nc(-c3ccc(-c4ccccc4)cc3)cs1)c(C)n2C(=O)c1ccc(Cl)cc1
–	–	11	–	–	COc1ccc2c(c1)c(Cc1nc(-c3ccc4ccccc4c3)cs1)c(C)n2C(=O)c1ccc(Cl)cc1
–	7	13	–	–	Cc1c(Cc2nc(-c3ccc(Br)cc3)cs2)c2cc(Br)ccc2n1C(=O)c1ccc(Br)cc1
–	40	1	–	–	CCOC(=O)c1csc(Cc2c(C)n(C(=O)c3ccc(Cl)cc3)c3ccc(OC)cc23)n1
–	40	1	–	–	Cc1c(Cc2nc(-c3ccc([N+](=O)[O-])cc3)cs2)c2cc(F)ccc2n1C(=O)c1ccc(Br)cc1
–	–	–	15500	0.39	COc1ccc2c(c1)c(Cc1csc(N)n1)c(C)n2C(=O)c1ccc(Cl)cc1
–	4	27	–	–	COc1ccc2c(c1)c(Cc1csc(NC(=O)CN)n1)c(C)n2C(=O)c1ccc(Cl)cc1
–	–	18	–	–	COc1ccc2c(c1)c(Cc1nc(-c3cccc(Br)c3)cs1)c(C)n2C(=O)c1ccc(Cl)cc1
–	–	20	–	–	COc1ccc2c(c1)c(Cc1nc(-c3csc4ccccc34)cs1)c(C)n2C(=O)c1ccc(Cl)cc1
–	45	0	–	–	COc1ccc2c(c1)c(Cc1csc(NC(=O)c3ccncc3)n1)c(C)n2C(=O)c1ccc(Cl)cc1
–	16	18	–	–	COc1ccc2c(c1)c(Cc1csc(-c3ccc(Cl)cc3)n1)c(C)n2C(=O)c1ccc(Cl)cc1
17	–	–	–	–	COc1ccc2c(c1)c(Cc1nc(-c3ccc([N+](=O)[O-])cc3)cs1)c(C)n2C(=O)c1ccc(Cl)cc1

inhibition [1] [%]	inhibition [2] [%]	inhibition [3] [%]	IC50 [4] [µM]	IC50 [5] [µM]	SMILES
–	–	35	–	0.12	COc1ccc2c(c1)c(Cc1nc(-c3ccc(C(=O)O)cc3)cs1)c(C)n2C(=O)c1ccc(Cl)cc1
–	1	36	–	–	COc1ccc2c(c1)c(Cc1nc(C(C)C)cs1)c(C)n2C(=O)c1ccc(Cl)cc1
–	42	24	–	–	COc1ccc2c(c1)c(Cc1csc(-c3ccccc3Cl)n1)c(C)n2C(=O)c1ccc(Cl)cc1
–	–	3	–	0.03	COc1ccc2c(c1)c(Cc1nc(-c3ccc(Br)cc3)cs1)c(C)n2C(=O)c1ccc(Br)cc1
–	9	4	–	–	Cc1c(Cc2nc(-c3ccc(Cl)cc3)cs2)c2cc(Br)ccc2n1C(=O)c1ccc(Br)cc1
–	75	12	–	–	COc1ccc2c(c1)c(Cc1nc(-c3ccc(F)cc3F)cs1)c(C)n2C(=O)c1ccc(Cl)cc1
–	2	6	–	–	COc1ccc2c(c1)c(Cc1nc(C(=O)O)cs1)c(C)n2C(=O)c1ccc(Cl)cc1
–	7	1	–	–	Cc1c(Cc2nc(-c3ccc([N+](=O)[O-])cc3)cs2)c2cc(Br)ccc2n1C(=O)c1ccc(Br)cc1
–	20	47	–	–	COc1ccc2c(c1)c(Cc1csc(-c3cccnc3)n1)c(C)n2C(=O)c1ccc(Cl)cc1
–	–	2	–	0.007	COc1ccc2c(c1)c(Cc1nc(-c3ccc(Cl)cc3)cs1)c(C)n2C(=O)c1ccc(Br)cc1
–	–	9	–	0.007	COc1ccc2c(c1)c(Cc1nc(-c3ccc([N+](=O)[O-])cc3)cs1)c(C)n2C(=O)c1ccc(Br)cc1
–	75	57	–	–	COc1ccc2c(c1)c(Cc1csc(-c3ccncc3)n1)c(C)n2C(=O)c1ccc(Cl)cc1
27	–	–	–	–	COc1ccc2c(c1)c(Cc1nc(-c3ccc(Br)cc3)cs1)c(C)n2C(=O)c1ccc(Cl)cc1
16	–	–	–	–	COc1ccc2c(c1)c(Cc1nc(-c3ccc(Cl)cc3)cs1)c(C)n2C(=O)c1ccc(Cl)cc1
–	36	23	–	–	CCN(CC)c1ccc(-c2csc(Cc3c(C)n(C(=O)c4ccc(Cl)cc4)c4ccc(OC)cc34)n2)cc1
–	33	15	–	–	COc1ccc2c(c1)c(Cc1nc(-c3ccc(S(C)(=O)=O)cc3)cs1)c(C)n2C(=O)c1ccc(Cl)cc1
–	25	0	–	–	Cc1c(Cc2nc(-c3ccc(Br)cc3)cs2)c2cc(F)ccc2n1C(=O)c1ccc(Br)cc1
